We go through 12 compounds from US9765091B2, “Tetrahydropyrazolo [3,4-b] azepine derivatives and their use as allosteric modulators of metabotropic glutamate receptors” (Addex Pharma S.A., priority 2010, dated 2017).

Data set [1] addresses T1, human mGluR4 (Homo sapiens, UniProt Q14833).
T1 construct: expressed in transfected cells
Put plainly: Fluorescent cell based Ca2+ mobilization assay (FLIPR) on HEK-293 cells expressing human mGluR4. The settings on record: positive allosteric modulation, HEK-293 cells expressing hmGluR4, stimulated by EC25 glutamate; mean of at least three independent experiments in duplicate; read-out: Ca^2+ Flux* (mean EC50). Background: Calcium flux is commonly read through the fluorescence of an indicator in the cells.

pEC50: −log10 of the molar value.

T1 sequence (Q14833 33-912): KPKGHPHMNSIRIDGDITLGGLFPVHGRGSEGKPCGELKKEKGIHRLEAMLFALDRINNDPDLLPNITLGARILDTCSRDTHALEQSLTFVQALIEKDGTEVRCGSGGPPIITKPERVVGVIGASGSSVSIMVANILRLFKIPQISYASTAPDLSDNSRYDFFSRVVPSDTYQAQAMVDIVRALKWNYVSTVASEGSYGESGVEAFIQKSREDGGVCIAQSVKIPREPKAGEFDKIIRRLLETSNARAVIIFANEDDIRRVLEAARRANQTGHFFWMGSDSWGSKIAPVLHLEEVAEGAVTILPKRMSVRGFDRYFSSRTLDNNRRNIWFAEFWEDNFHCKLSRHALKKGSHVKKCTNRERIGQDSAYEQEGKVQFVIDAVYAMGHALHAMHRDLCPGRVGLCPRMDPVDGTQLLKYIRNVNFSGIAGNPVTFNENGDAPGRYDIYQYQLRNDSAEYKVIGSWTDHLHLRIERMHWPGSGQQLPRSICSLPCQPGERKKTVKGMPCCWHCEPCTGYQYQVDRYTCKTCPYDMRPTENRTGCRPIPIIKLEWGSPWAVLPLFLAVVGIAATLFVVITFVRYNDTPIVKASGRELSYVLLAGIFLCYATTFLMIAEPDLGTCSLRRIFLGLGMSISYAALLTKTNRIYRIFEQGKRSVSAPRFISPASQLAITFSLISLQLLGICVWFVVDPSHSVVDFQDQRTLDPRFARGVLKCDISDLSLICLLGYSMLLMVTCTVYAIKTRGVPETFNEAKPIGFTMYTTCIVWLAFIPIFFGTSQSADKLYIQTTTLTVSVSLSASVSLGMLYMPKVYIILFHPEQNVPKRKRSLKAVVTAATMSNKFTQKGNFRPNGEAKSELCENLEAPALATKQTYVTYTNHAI

Consider `CCN1CCc2sc(Nc3ncc(F)cn3)nc2-c2c[nH]nc21` [Compound 1-34, 6-Ethyl-N-(5-fluoropyrimidin-2-yl)-4,5,6,8-tetrahydropyrazolo[3,4-b]thiazolo[4,5-d]azepin-2-amine], for which the melting point (as a rule, the temperature, or range, at which the solid turns liquid) was found to be 306 °C. In data set [1], the pEC50 – broadly, the EC50 on a negative log10 scale, so that one unit is a factor of ten – was greater than 7.00.
In the case of `COCCN1CCc2sc(Nc3cccc(F)n3)nc2-c2c[nH]nc21` [Compound 1-14, N-(6-Fluoropyridin-2-yl)-6-(2-methoxyethyl)-4,5,6,8-tetrahydropyrazolo[3,4-b]thiazolo[4,5-d]azepin-2-amine], the melting point is 203 °C. Besides, in data set [1], the negative-log EC50 (pEC50) was greater than 7.00.
`Cc1noc(C)c1CN1CCc2sc(Nc3ncc(F)cn3)nc2-c2c[nH]nc21` [Compound 1-23, 6-((3,5-Dimethylisoxazol-4-yl)methyl)-N-(5-fluoropyrimidin-2-yl)-4,5,6,8-tetrahydropyrazolo[3,4-b]thiazolo[4,5-d]azepin-2-amine] came in with a melting point of 275 °C. For the same compound, in data set [1], the negative logarithm of the EC50 (pEC50) was greater than 7.00.
As to `Cc1ccnc(Nc2nc3c(s2)CCN(C)c2n[nH]cc2-3)n1` [Compound 1-1, 6-Methyl-N-(4-methylpyrimidin-2-yl)-4,5,6,8-tetrahydropyrazolo[3,4-b]thiazolo[4,5-d]azepin-2-amine], the melting point was determined as 292 °C. In addition, in data set [1], the negative logarithm of the EC50 (pEC50) was greater than 7.00.
Taken in the same sequence, the figures for `Cc1nc(Nc2nc3c(s2)CCN(C)c2n[nH]cc2-3)ns1` [Compound 1-8, 6-Methyl-N-(5-methyl-1,2,4-thiadiazol-3-yl)-4,5,6,8-tetrahydropyrazolo[3,4-b]thiazolo[4,5-d]azepin-2-amine] were 291 °C and greater than 7.00.
Take `COCC(C)N1CCc2sc(Nc3nccc(C)n3)nc2-c2c[nH]nc21` (stereo not drawn) [Compound 1-11, 6-(1-Methoxypropan-2-yl)-N-(4-methylpyrimidin-2-yl)-4,5,6,8-tetrahydropyrazolo[3,4-b]thiazolo[4,5-d]azepin-2-amine]: the melting point turned out to be 233 °C. In addition, the pEC50 in data set [1] was greater than 7.00.
Turning to `Fc1cnc(Nc2nc3c(s2)CCNc2n[nH]cc2-3)nc1` [Compound 1-25, N-(5-Fluoropyrimidin-2-yl)-4,5,6,8-tetrahydropyrazolo[3,4-b]thiazolo[4,5-d]azepin-2-amine], the melting point came out at 312 °C. In data set [1], the pEC50 is greater than 7.00.
`Cc1cccc(Nc2nc3c(s2)CCN(CC2CC2)c2n[nH]cc2-3)n1` [Compound 1-39, 6-(Cyclopropylmethyl)-N-(6-methylpyridin-2-yl)-4,5,6,8-tetrahydropyrazolo[3,4-b]thiazolo[4,5-d]azepin-2-amine] yielded a melting point of 285 °C. Besides, in data set [1], the pEC50 is 6.00 to 7.00.
The compound `COCCN1CCc2sc(Nc3ccc(F)cn3)nc2-c2c[nH]nc21` [Compound 1-15, N-(5-Fluoropyridin-2-yl)-6-(2-methoxyethyl)-4,5,6,8-tetrahydropyrazolo[3,4-b]thiazolo[4,5-d]azepin-2-amine] came in with a melting point of 218 °C. Besides, the negative-log EC50 (pEC50) in data set [1] was 6.00 to 7.00.
`Cc1cc(CN2CCc3sc(Nc4ncc(F)cn4)nc3-c3c[nH]nc32)on1` [Compound 1-35, N-(5-Fluoropyrimidin-2-yl)-6-((3-methylisoxazol-5-yl)methyl)-4,5,6,8-tetrahydropyrazolo[3,4-b]thiazolo[4,5-d]azepin-2-amine] displayed a melting point of 280 °C. For the same compound, in data set [1], the pEC50 is greater than 7.00.
In the same order, the values of `CC(C)c1nc(CN2CCc3sc(Nc4ncc(F)cn4)nc3-c3c[nH]nc32)co1` [Compound 1-24, N-(5-Fluoropyrimidin-2-yl)-6-((2-isopropyloxazol-4-yl)methyl)-4,5,6,8-tetrahydropyrazolo[3,4-b]thiazolo[4,5-d]azepin-2-amine] are 271 °C and greater than 7.00.
Compound `Fc1cccc(Nc2nc3c(s2)CCN(CC2CC2)c2n[nH]cc2-3)n1` [Compound 1-40, 6-(Cyclopropylmethyl)-N-(6-fluoropyridin-2-yl)-4,5,6,8-tetrahydropyrazolo[3,4-b]thiazolo[4,5-d]azepin-2-amine] gave a melting point of 297 °C. Moreover, in data set [1], the negative-log EC50 (pEC50) is 6.00 to 7.00.
